From the NIST ThermoML archive (doi:10.1016/j.fluid.2011.08.020)

Settings: Liquid, Variable volume cell

CCCCCCCCCCCCCCCCCCCC [eicosane]
Settings | mass density [kg/m3]
323.65 K, 7300 kPa | 771
323.65 K, 14900 kPa | 777
323.65 K, 21400 kPa | 784
323.65 K, 27400 kPa | 787
323.65 K, 34200 kPa | 789
422.85 K, 7400 kPa | 711
422.85 K, 14300 kPa | 719
422.85 K, 20600 kPa | 723
422.85 K, 27900 kPa | 730
422.85 K, 34600 kPa | 735
422.85 K, 54200 kPa | 748
422.85 K, 81600 kPa | 765
422.85 K, 109200 kPa | 781
422.85 K, 136100 kPa | 792
422.85 K, 169500 kPa | 806
422.85 K, 203100 kPa | 818
422.85 K, 235500 kPa | 829
422.85 K, 260000 kPa | 837
522.55 K, 16400 kPa | 661
522.55 K, 28300 kPa | 676
522.55 K, 41900 kPa | 691
522.55 K, 55500 kPa | 706
522.55 K, 69600 kPa | 719
522.55 K, 82500 kPa | 727
522.55 K, 109200 kPa | 744
522.55 K, 138200 kPa | 763
522.55 K, 173100 kPa | 777
522.55 K, 204700 kPa | 791
522.55 K, 239800 kPa | 805
522.55 K, 258000 kPa | 810

CCCCCCCCCCCCCCCC [hexadecane]
Settings | mass density [kg/m3]
323.65 K, 14900 kPa | 758
323.65 K, 27900 kPa | 769
323.65 K, 41500 kPa | 779
323.65 K, 55500 kPa | 787
323.65 K, 69400 kPa | 792
323.65 K, 81300 kPa | 799
323.65 K, 109700 kPa | 807
422.85 K, 14100 kPa | 700
422.85 K, 27900 kPa | 713
422.85 K, 41200 kPa | 724
422.85 K, 55500 kPa | 734
422.85 K, 69800 kPa | 743
422.85 K, 82800 kPa | 750
422.85 K, 108800 kPa | 765
422.85 K, 136900 kPa | 778
422.85 K, 170700 kPa | 792
422.85 K, 204300 kPa | 804
422.85 K, 236500 kPa | 815
422.85 K, 262300 kPa | 823
522.55 K, 15100 kPa | 643
522.55 K, 27100 kPa | 660
522.55 K, 42000 kPa | 675
522.55 K, 55400 kPa | 687
522.55 K, 69100 kPa | 698
522.55 K, 82100 kPa | 707
522.55 K, 107900 kPa | 723
522.55 K, 135800 kPa | 738
522.55 K, 170100 kPa | 755
522.55 K, 203300 kPa | 769
522.55 K, 235800 kPa | 782
522.55 K, 255000 kPa | 788

CCCCCCCCCCCCCCCCCC [octadecane]
Settings | mass density [kg/m3]
323.65 K, 7000 kPa | 764
323.65 K, 14400 kPa | 769
323.65 K, 28300 kPa | 778
323.65 K, 42200 kPa | 788
323.65 K, 55600 kPa | 797
323.65 K, 68900 kPa | 800
422.85 K, 7700 kPa | 702
422.85 K, 15100 kPa | 711
422.85 K, 29400 kPa | 724
422.85 K, 42500 kPa | 732
422.85 K, 56100 kPa | 741
422.85 K, 73200 kPa | 752
422.85 K, 84500 kPa | 761
422.85 K, 110000 kPa | 774
422.85 K, 138500 kPa | 787
422.85 K, 171700 kPa | 801
422.85 K, 206100 kPa | 813
422.85 K, 235500 kPa | 823
422.85 K, 255900 kPa | 829
522.55 K, 15300 kPa | 651
522.55 K, 29400 kPa | 668
522.55 K, 43200 kPa | 681
522.55 K, 56400 kPa | 692
522.55 K, 70800 kPa | 703
522.55 K, 84400 kPa | 712
522.55 K, 110000 kPa | 727
522.55 K, 137800 kPa | 742
522.55 K, 170400 kPa | 757
522.55 K, 205300 kPa | 771
522.55 K, 235700 kPa | 782
522.55 K, 257000 kPa | 790
